Assay results as given in ChEMBL document CHEMBL1134554, “Design, synthesis, and structure-activity relationships of macrocyclic hydroxamic acids that inhibit tumor necrosis factor alpha release in vitro and in vivo” (J Med Chem, 2001).
pIC50: −log10 of the molar value.

Target: Disintegrin and metalloproteinase domain-containing protein 17 (Homo sapiens, UniProt P78536)
Sequence (P78536 whole entry, the tested form may be a part): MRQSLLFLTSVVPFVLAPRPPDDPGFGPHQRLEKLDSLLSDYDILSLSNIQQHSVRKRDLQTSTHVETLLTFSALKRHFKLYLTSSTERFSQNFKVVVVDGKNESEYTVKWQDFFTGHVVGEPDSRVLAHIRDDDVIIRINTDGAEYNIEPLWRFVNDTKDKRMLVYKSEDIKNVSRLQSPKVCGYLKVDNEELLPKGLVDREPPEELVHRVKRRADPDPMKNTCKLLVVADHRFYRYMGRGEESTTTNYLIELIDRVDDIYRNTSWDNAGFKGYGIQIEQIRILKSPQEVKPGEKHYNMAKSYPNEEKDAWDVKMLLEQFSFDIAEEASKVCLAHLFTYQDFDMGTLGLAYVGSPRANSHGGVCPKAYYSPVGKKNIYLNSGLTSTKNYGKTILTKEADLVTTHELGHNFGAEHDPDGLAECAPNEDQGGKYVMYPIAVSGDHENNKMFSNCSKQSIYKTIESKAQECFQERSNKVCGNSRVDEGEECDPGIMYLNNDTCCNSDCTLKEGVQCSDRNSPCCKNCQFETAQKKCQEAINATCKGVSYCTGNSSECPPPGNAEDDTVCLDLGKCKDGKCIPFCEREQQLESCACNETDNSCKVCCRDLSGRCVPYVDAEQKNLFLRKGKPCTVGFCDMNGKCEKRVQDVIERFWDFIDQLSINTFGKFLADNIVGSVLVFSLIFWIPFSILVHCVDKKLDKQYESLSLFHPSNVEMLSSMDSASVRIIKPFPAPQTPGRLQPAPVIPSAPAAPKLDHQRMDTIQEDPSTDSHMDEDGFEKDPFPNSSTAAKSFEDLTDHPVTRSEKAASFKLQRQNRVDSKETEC
Description: Inhibition of LPS-stimulated TNF-alpha release in human whole blood

Question: How did the pIC50 turn out when `CNC(=O)[C@@H](CCCCN)NC(=O)[C@@H]1Cc2ccc(cc2)OCCC[C@H](C(=O)NO)[C@@H](CC(C)C)C(=O)N1` was run?
Answer: The pIC50 was 6.08.

Question: With `CC(C)C[C@H]1C(=O)N[C@H](C(=O)Nc2ccncc2)CCCCN(C)C(=O)OCCC[C@@H]1C(=O)NO` as the molecule, how does the pIC50 read?
Answer: The pIC50 was 6.30.

Question: How did the pIC50 turn out when `CNC(=O)[C@H](NC(=O)[C@@H]1CCCCNC(=O)OCCC[C@H](C(=O)NO)[C@@H](CC(C)C)C(=O)N1)C(C)(C)C` was run?
Answer: Its pIC50 is 5.92.

Question: With `CC(C)C[C@H]1C(=O)N[C@H](C(=O)NC(C)C)Cc2ccc(cc2)OCCC[C@@H]1C(=O)NO` as the molecule, how does the pIC50 read?
Answer: The pIC50 was 6.15.

Question: `CNC(=O)[C@@H]1CCCCNCCC[C@H](C(=O)NO)[C@@H](CC(C)C)C(=O)N1` was tested. Which pIC50 did it give?
Answer: Its pIC50 is 5.57.

Question: With `CC(C)C[C@H]1C(=O)N[C@H](C(=O)Nc2cccnc2)CCCCN(C)C(=O)OCCC[C@@H]1C(=O)NO` as the molecule, how does the pIC50 read?
Answer: The pIC50 was 6.30.

Question: How did the pIC50 turn out when `CC(C)C[C@H]1C(=O)N[C@H](C(=O)NCCc2ccccn2)CCCCNC(=O)OCCC[C@@H]1C(=O)NO` was run?
Answer: The pIC50 was 6.41.

Question: `CC(C)C[C@H]1C(=O)N[C@H](C(=O)NCC(=O)N2CCC(N3CCCCC3)CC2)CCCCNC(=O)OCCC[C@@H]1C(=O)NO` was tested. Which pIC50 did it give?
Answer: The pIC50 was 6.74.

Question: How did the pIC50 turn out when `CC(C)C[C@H]1C(=O)N[C@H](C(=O)NCC(=O)N2CCN(C)CC2)CCCCNC(=O)OCCC[C@@H]1C(=O)NO` was run?
Answer: The pIC50 was 6.80.

Question: `CC(C)C[C@H]1C(=O)N[C@H](C(=O)NCC(F)(F)F)Cc2ccc(cc2)OCCC[C@@H]1C(=O)NO` was tested. Which pIC50 did it give?
Answer: The pIC50 was 6.17.

Question: How did the pIC50 turn out when `CNC(=O)[C@H](NC(=O)[C@@H]1Cc2ccc(cc2)OCCC[C@H](C(=O)NO)[C@@H](CC(C)C)C(=O)N1)C(C)C` was run?
Answer: The pIC50 was 5.82.

Question: With `CC(C)C[C@H]1C(=O)N[C@H](C(=O)NCC(=O)N2CCOCC2)CCCCN(C)C(=O)OCCC[C@@H]1C(=O)NO` as the molecule, how does the pIC50 read?
Answer: The pIC50 was 6.70.

Question: With `CC(C)C[C@H]1C(=O)N[C@H](C(=O)NC[C@@H]2CCCO2)CCCCNC(=O)OCCC[C@@H]1C(=O)NO` as the molecule, how does the pIC50 read?
Answer: Its pIC50 is 6.59.

Question: How did the pIC50 turn out when `CC(C)C[C@H]1C(=O)N[C@H](C(=O)NCC(=O)N2CCC(C(=O)O)CC2)CCCCNC(=O)OCCC[C@@H]1C(=O)NO` was run?
Answer: The pIC50 was 6.66.

Question: `CNC(=O)[C@@H]1CCCCN(C(=O)OC(C)(C)C)CCC[C@H](C(=O)NO)[C@@H](CC(C)C)C(=O)N1` was tested. Which pIC50 did it give?
Answer: Its pIC50 is 5.85.

Question: With `CC(C)C[C@H]1C(=O)N[C@H](C(=O)NCCc2c[nH]c3ccc(F)cc23)CCCCNC(=O)OCCC[C@@H]1C(=O)NO` as the molecule, how does the pIC50 read?
Answer: The pIC50 was 6.89.

Question: With `CC(C)C[C@H]1C(=O)N[C@H](C(=O)NCC(=O)N2CCCC2)CCCCN(C)C(=O)OCCC[C@@H]1C(=O)NO` as the molecule, how does the pIC50 read?
Answer: Its pIC50 is 6.40.

Question: `CC(C)C[C@H]1C(=O)N[C@H](C(=O)NCC(=O)N2CCN(c3ccccc3)CC2)CCCCNC(=O)OCCC[C@@H]1C(=O)NO` was tested. Which pIC50 did it give?
Answer: The pIC50 was 7.15.

Question: How did the pIC50 turn out when `CC(C)C[C@H]1C(=O)N[C@H](C(=O)NCC(=O)N(C)C)CCCCN(C)C(=O)OCCC[C@@H]1C(=O)NO` was run?
Answer: The pIC50 was 6.52.

Question: How did the pIC50 turn out when `CNC(=O)[C@@H]1CCCCN(S(=O)(=O)c2ccccc2)CCC[C@H](C(=O)NO)[C@@H](CC(C)C)C(=O)N1` was run?
Answer: The pIC50 was 5.89.

Question: With `CNC(=O)[C@@H]1CCCCNC(=O)CO[C@H](C(=O)NO)[C@@H](CC(C)C)C(=O)N1` as the molecule, how does the pIC50 read?
Answer: The pIC50 was 5.19.

Question: `CNC(=O)[C@@H](CCCCNC(=O)OC(C)(C)C)NC(=O)[C@@H]1CCCCNC(=O)OCCC[C@H](C(=O)NO)[C@@H](CC(C)C)C(=O)N1` was tested. Which pIC50 did it give?
Answer: Its pIC50 is 6.68.

Question: `CC(C)C[C@H]1C(=O)N[C@H](C(=O)NCC(=O)Nc2ccccn2)CCCCN(C)C(=O)OCCC[C@@H]1C(=O)NO` was tested. Which pIC50 did it give?
Answer: Its pIC50 is 6.70.

Question: `CC(C)C[C@H]1C(=O)N[C@H](C(=O)NCC(=O)N2CCN(c3ccccn3)CC2)CCCCNC(=O)OCCC[C@@H]1C(=O)NO` was tested. Which pIC50 did it give?
Answer: The pIC50 was 7.15.

Question: `CNC(=O)[C@@H](CCCCN)NC(=O)[C@@H]1CCCCNC(=O)OCCC[C@H](C(=O)NO)[C@@H](CC(C)C)C(=O)N1` was tested. Which pIC50 did it give?
Answer: Its pIC50 is 6.16.

Question: `CC(C)C[C@H]1C(=O)N[C@H](C(=O)NCC(=O)N2CCC(O)CC2)Cc2ccc(cc2)OCCC[C@@H]1C(=O)NO` was tested. Which pIC50 did it give?
Answer: Its pIC50 is 6.70.

Question: With `CC(C)C[C@H]1C(=O)N[C@H](C(=O)NCc2ccncc2)CCCCNC(=O)OCCC[C@@H]1C(=O)NO` as the molecule, how does the pIC50 read?
Answer: Its pIC50 is 6.31.

Question: `CC(C)C[C@H]1C(=O)N[C@H](C(=O)NCC(F)(F)F)CCCCNC(=O)OCCC[C@@H]1C(=O)NO` was tested. Which pIC50 did it give?
Answer: Its pIC50 is 5.70.

Question: With `CC(C)C[C@H]1C(=O)N[C@H](C(=O)N[C@@H]2c3ccccc3C[C@@H]2O)CCCCNC(=O)OCCC[C@@H]1C(=O)NO` as the molecule, how does the pIC50 read?
Answer: Its pIC50 is 6.96.

Question: How did the pIC50 turn out when `CCCCCC[C@H]1C(=O)N[C@H](C(=O)NCC(=O)NC)Cc2ccc(cc2)OCCC[C@@H]1C(=O)NO` was run?
Answer: Its pIC50 is 6.26.

Question: With `CC(C)C[C@H]1C(=O)N[C@H](C(=O)NCC(=O)Nc2ccc(F)cc2F)Cc2ccc(cc2)OCCC[C@@H]1C(=O)NO` as the molecule, how does the pIC50 read?
Answer: The pIC50 was 6.15.

Question: With `CC(C)C[C@H]1C(=O)N[C@H](C(=O)NCc2ccccn2)CCCCNC(=O)OCCC[C@@H]1C(=O)NO` as the molecule, how does the pIC50 read?
Answer: The pIC50 was 6.15.

Question: How did the pIC50 turn out when `CNC(=O)[C@@H](COC(C)(C)C)NC(=O)[C@@H]1Cc2ccc(cc2)OCCC[C@H](C(=O)NO)[C@@H](CC(C)C)C(=O)N1` was run?
Answer: Its pIC50 is 6.02.

Question: `CCOC(=O)N1CCN(C(=O)CNC(=O)[C@@H]2CCCCN(C)C(=O)OCCC[C@H](C(=O)NO)[C@@H](CC(C)C)C(=O)N2)CC1` was tested. Which pIC50 did it give?
Answer: Its pIC50 is 6.22.

Question: `CC(C)C[C@H]1C(=O)N[C@H](C(=O)NCC(=O)N2CC(C)OC(C)C2)CCCCNC(=O)OCCC[C@@H]1C(=O)NO` (stereo partly drawn) was tested. Which pIC50 did it give?
Answer: Its pIC50 is 6.82.

Question: `CC(C)C[C@H]1C(=O)N[C@H](C(=O)NCC(=O)Nc2cccc3c2Cc2ccccc2-3)Cc2ccc(cc2)OCCC[C@@H]1C(=O)NO` was tested. Which pIC50 did it give?
Answer: The pIC50 was 6.03.

Question: `CC(C)C[C@H]1C(=O)N[C@H](C(=O)N[C@H]2c3ccccc3C[C@H]2O)CCCCNC(=O)OCCC[C@@H]1C(=O)NO` was tested. Which pIC50 did it give?
Answer: The pIC50 was 6.40.

Question: `CC(C)C[C@H]1C(=O)N[C@H](C(=O)NCCc2ccccc2O)CCCCNC(=O)OCCC[C@@H]1C(=O)NO` was tested. Which pIC50 did it give?
Answer: The pIC50 was 7.07.

Question: How did the pIC50 turn out when `CCCCCC[C@H]1C(=O)N[C@H](C(=O)OC)Cc2ccc(cc2)OCCC[C@@H]1C(=O)NO` was run?
Answer: Its pIC50 is less than 4.30.

Question: `CC(C)C[C@H]1C(=O)N[C@H](C(=O)Nc2ccccn2)CCCCN(C)C(=O)OCCC[C@@H]1C(=O)NO` was tested. Which pIC50 did it give?
Answer: The pIC50 was 6.70.

Question: With `Cc1csc(NC(=O)CNC(=O)[C@@H]2CCCCN(C)C(=O)OCCC[C@H](C(=O)NO)[C@@H](CC(C)C)C(=O)N2)n1` as the molecule, how does the pIC50 read?
Answer: Its pIC50 is 6.52.

Question: `CNC(=O)[C@@H]1Cc2ccc(cc2)OCCC[C@H](C(=O)NO)[C@@H](CC(C)C)C(=O)N1` was tested. Which pIC50 did it give?
Answer: Its pIC50 is 5.92.

Question: `CC(C)C[C@H]1C(=O)N[C@H](C(=O)NCC(=O)N2CC(C)CC(C)C2)Cc2ccc(cc2)OCCC[C@@H]1C(=O)NO` (stereo partly drawn) was tested. Which pIC50 did it give?
Answer: The pIC50 was 6.57.

Question: `CNC(=O)[C@H](C)NC(=O)[C@@H]1Cc2ccc(cc2)OCCC[C@H](C(=O)NO)[C@@H](CC(C)C)C(=O)N1` was tested. Which pIC50 did it give?
Answer: Its pIC50 is 5.35.

Question: `COc1ccc2[nH]cc(CCNC(=O)[C@@H]3CCCCNC(=O)OCCC[C@H](C(=O)NO)[C@@H](CC(C)C)C(=O)N3)c2c1` was tested. Which pIC50 did it give?
Answer: The pIC50 was 6.31.

Question: With `CC(C)C[C@H]1C(=O)N[C@H](C(=O)N[C@H](C)C(=O)N2CCOCC2)CCCCNC(=O)OCCC[C@@H]1C(=O)NO` as the molecule, how does the pIC50 read?
Answer: The pIC50 was 6.82.

Question: With `CC(C)C[C@H]1C(=O)N[C@H](C(=O)NCC(=O)NCC(F)(F)F)Cc2ccc(cc2)OCCC[C@@H]1C(=O)NO` as the molecule, how does the pIC50 read?
Answer: The pIC50 was 6.62.

Question: How did the pIC50 turn out when `CC(C)C[C@H]1C(=O)N[C@H](C(=O)NC[C@H]2CCCO2)CCCCNC(=O)OCCC[C@@H]1C(=O)NO` was run?
Answer: Its pIC50 is 6.01.

Question: With `CNC(=O)CNC(=O)[C@@H]1CCCCN(C)C(=O)OCCC[C@H](C(=O)NO)[C@@H](CC(C)C)C(=O)N1` as the molecule, how does the pIC50 read?
Answer: Its pIC50 is 6.38.

Question: How did the pIC50 turn out when `CNC(=O)[C@@H](Cc1ccc(OC)cc1)NC(=O)[C@@H]1Cc2ccc(cc2)OCCC[C@H](C(=O)NO)[C@@H](CC(C)C)C(=O)N1` was run?
Answer: Its pIC50 is 6.07.

Question: With `CC(C)C[C@H]1C(=O)N[C@H](C(=O)NCC(=O)N2CCC(O)CC2)CCCCNC(=O)OCCC[C@@H]1C(=O)NO` as the molecule, how does the pIC50 read?
Answer: The pIC50 was 6.55.

Question: `CC(C)C[C@H]1C(=O)N[C@H](C(=O)NCC(=O)Nc2ccccc2)Cc2ccc(cc2)OCCC[C@@H]1C(=O)NO` was tested. Which pIC50 did it give?
Answer: The pIC50 was 6.70.

Question: `Cc1ccc2[nH]cc(CCNC(=O)[C@@H]3CCCCNC(=O)OCCC[C@H](C(=O)NO)[C@@H](CC(C)C)C(=O)N3)c2c1` was tested. Which pIC50 did it give?
Answer: The pIC50 was 5.93.
